# According to paper PMC5630390, “7-ketocholesterol and 27-hydroxycholesterol decreased doxorubicin sensitivity in breast cancer cells: estrogenic activity and mTOR pathway” (Oncotarget, 2017):
# Target: T1, ERα (Homo sapiens, UniProt P03372)
# T1 construct: gene ESR1; recombinant human ERα expressed in yeast with a LacZ reporter construct
# T1 sequence (P03372 1-595): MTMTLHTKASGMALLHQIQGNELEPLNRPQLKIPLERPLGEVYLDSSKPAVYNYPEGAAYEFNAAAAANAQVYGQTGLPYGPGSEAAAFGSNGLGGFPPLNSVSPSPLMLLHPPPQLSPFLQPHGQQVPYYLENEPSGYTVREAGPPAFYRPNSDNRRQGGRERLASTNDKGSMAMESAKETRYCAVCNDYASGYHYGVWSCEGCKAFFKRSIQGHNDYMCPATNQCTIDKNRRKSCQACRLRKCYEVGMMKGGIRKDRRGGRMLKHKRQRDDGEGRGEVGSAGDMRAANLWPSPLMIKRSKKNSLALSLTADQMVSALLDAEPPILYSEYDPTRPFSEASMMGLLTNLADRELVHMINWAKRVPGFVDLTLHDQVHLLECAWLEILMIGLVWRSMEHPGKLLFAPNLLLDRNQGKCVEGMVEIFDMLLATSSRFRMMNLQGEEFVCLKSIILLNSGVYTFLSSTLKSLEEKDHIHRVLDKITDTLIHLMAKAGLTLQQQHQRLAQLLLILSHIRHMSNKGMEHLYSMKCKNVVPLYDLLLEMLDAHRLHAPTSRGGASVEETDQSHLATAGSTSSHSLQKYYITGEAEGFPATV
# Test: yeast ER reporter (YES) assay, agonist mode, […] h; weak, […] stimulation at […]
# Type: cell-based
smiles,measurement,value
"CC(C)CCC[C@@H](C)[C@H]1CC[C@H]2[C@@H]3C(=O)C=C4C[C@@H](O)CC[C@]4(C)[C@H]3CC[C@]12C [7-KC, 7-ketocholesterol]",activation at 50 µM,14%
